The values that follow come from PubChem BioAssay AID248 (DTP/NCI, 2004).

For the test, the system named is L1210 leukemia ip in BDF1 mice, survival T/C. The experiment in a line: NCI In Vivo Anticancer Drug Screen. Data for tumor model L1210 Leukemia (intraperitoneal) in B6D2F1 (BDF1) mice. To be noted: endpoint: mean survival time, higher = longer survival. Put shortly:
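Transplanted-tumor mice were given test agent; controls received vehicle only. Survival readings from the two groups were divided (treated over control).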

The mark [1] stands for this setting: dose: 100.0 mg/kg/injection, schedule: Q01DX001 (ip), vehicle: saline.
The mark [2] stands for this setting: dose: 200.0 mg/kg/injection, schedule: Q01DX001 (ip), vehicle: saline.
[3] abbreviates: dose: 400.0 mg/kg/injection, schedule: Q01DX001 (ip), vehicle: saline.
The mark [4] stands for this setting: dose: 10.0 mg/kg/injection, schedule: Q01DX001 (ip), vehicle: saline.
Setting [5] is: dose: 20.0 mg/kg/injection, schedule: Q01DX001 (ip), vehicle: saline.
Where [6] appears, read: dose: 40.0 mg/kg/injection, schedule: Q01DX001 (ip), vehicle: saline.
[7] abbreviates: dose: 80.0 mg/kg/injection, schedule: Q01DX001 (ip), vehicle: saline.
Where [8] appears, read: dose: 100.0 mg/kg/injection, schedule: Q01DX009 (ip), vehicle: water.

SMILES strings stand for the structures. Toxic doses and inconclusive results are not listed.

In the case of `CCCCCCCCCCCCCCCCNC(=O)C[N+](C)(C)Cc1ccccc1`, the T/C was 101 % of control (dose: 2.5 mg/kg/injection, schedule: Q01DX009 (ip), vehicle: saline with Tween-80) and 98 % of control (dose: 5.0 mg/kg/injection, schedule: Q01DX009 (ip), vehicle: saline with Tween-80).
For `CC(=O)Oc1ccc(CC(C(=O)O)c2ccccc2)cc1` (centres undefined), the T/C reads like this: under setting [1], 107 % of control; (dose: 100.0 mg/kg/injection, schedule: Q01DX009 (ip), vehicle: Klucel (hydroxypropylcellulose) (HPC)) 91 % of control; (dose: 100.0 mg/kg/injection, schedule: Q04DX003 (ip), vehicle: Klucel (hydroxypropylcellulose) (HPC)) 100 % of control; under setting [2], 101 % of control; (dose: 200.0 mg/kg/injection, schedule: Q01DX009 (ip), vehicle: Klucel (hydroxypropylcellulose) (HPC)) 109 % of control; (dose: 200.0 mg/kg/injection, schedule: Q04DX003 (ip), vehicle: Klucel (hydroxypropylcellulose) (HPC)) 96 % of control. Moreover, the T/C reads like this: under setting [3], 113 % of control; (dose: 400.0 mg/kg/injection, schedule: Q01DX009 (ip), vehicle: Klucel (hydroxypropylcellulose) (HPC)) 95 % of control; (dose: 400.0 mg/kg/injection, schedule: Q04DX003 (ip), vehicle: Klucel (hydroxypropylcellulose) (HPC)) 96 % of control.
For the compound `CCOP(=O)(SCC)N(CC)CC` (centres undefined), the T/C is 108 % of control (dose: 5.0 mg/kg/injection, schedule: Q01DX001 (ip), vehicle: saline); 104 % of control under setting [4]; 104 % of control under setting [5]; 115 % of control under setting [6]; 106 % of control under setting [7].
Take `Cc1ccc(S(=O)(=O)N/N=C/C(=O)O)cc1`: the T/C runs as follows: (dose: 10.0 mg/kg/injection, schedule: Q01DX009 (ip), vehicle: other) 116 % of control; (dose: 15.0 mg/kg/injection, schedule: Q01DX009 (ip), vehicle: other) 118 % of control; (dose: 27.0 mg/kg/injection, schedule: Q01DX009 (ip), vehicle: saline) 158 % of control; (dose: 33.0 mg/kg/injection, schedule: Q01DX009 (ip), vehicle: other) 166 % of control; (dose: 40.0 mg/kg/injection, schedule: Q01DX009 (ip), vehicle: saline) 153 % of control; (dose: 50.0 mg/kg/injection, schedule: Q01DX009 (ip), vehicle: water) 108 % of control. In addition, the T/C was 119 % of control (dose: 75.0 mg/kg/injection, schedule: Q01DX001 (ip), vehicle: saline); 164 % of control (dose: 90.0 mg/kg/injection, schedule: Q01DX009 (ip), vehicle: saline); 120 % of control (dose: 100.0 mg/kg/injection, schedule: Q01DX009 (ip), vehicle: saline with Tween-80); 92 % of control under setting [8]; 97 % of control (dose: 112.0 mg/kg/injection, schedule: Q01DX009 (ip), vehicle: other); 97 % of control (dose: 144.0 mg/kg/injection, schedule: Q04DX003 (ip), vehicle: saline with Tween-80). The T/C reads like this: (dose: 150.0 mg/kg/injection, schedule: Q01DX009 (ip), vehicle: saline with Tween-80) 116 % of control; (dose: 200.0 mg/kg/injection, schedule: Q01DX009 (ip), vehicle: saline with Tween-80) 112 % of control; (dose: 240.0 mg/kg/injection, schedule: Q04DX003 (ip), vehicle: saline with Tween-80) 107 % of control; (dose: 400.0 mg/kg/injection, schedule: Q04DX003 (ip), vehicle: saline with Tween-80) 108 % of control; (dose: 500.0 mg/kg/injection, schedule: Q01DX009 (ip), vehicle: saline with Tween-80) 117 % of control.
Consider `CC(c1ccc(Br)cc1)N(C)C` (centres undefined), for which the T/C by setting is: under setting [4], 102 % of control; under setting [5], 93 % of control; under setting [6], 98 % of control; under setting [7], 98 % of control.
In the case of `NC(CSSCC(N)=NCC12CC3CC(CC(C3)C1)C2)=NCC12CC3CC(CC(C3)C1)C2`, the T/C (dose: 100.0 mg/kg/injection, schedule: Q04DX002 (ip), vehicle: saline with Tween-80) was 97 % of control and the T/C (dose: 200.0 mg/kg/injection, schedule: Q04DX002 (ip), vehicle: saline with Tween-80) is 105 % of control.
Consider `O=C1c2c(O)cccc2C(Br)c2cccc(O)c21`, for which the T/C is 108 % of control (dose: 100.0 mg/kg/injection, schedule: Q01DX001 (ip), vehicle: water); 103 % of control under setting [8]; 108 % of control (dose: 200.0 mg/kg/injection, schedule: Q01DX001 (ip), vehicle: water); 100 % of control (dose: 200.0 mg/kg/injection, schedule: Q01DX009 (ip), vehicle: water); 104 % of control (dose: 300.0 mg/kg/injection, schedule: Q01DX001 (ip), vehicle: water); 90 % of control (dose: 400.0 mg/kg/injection, schedule: Q01DX009 (ip), vehicle: water).
Take `Nc1cccc(OCCOc2ccc([N+](=O)[O-])cc2)c1`: the T/C is, setting by setting: under setting [1], 102 % of control; under setting [2], 104 % of control; under setting [3], 100 % of control.
Turning to `Nc1nc2c(c(=O)[nH]1)[N+]1=CN(c3ccc(C(=O)NC(CCC(=O)O)C(=O)O)cc3)CCC1CN2` (centres undefined), the T/C by setting is: (dose: 1.0 mg/kg/injection, schedule: Q01DX009 (ip), vehicle: saline) 94 % of control; (dose: 2.0 mg/kg/injection, schedule: Q01DX009 (ip), vehicle: saline) 100 % of control; (dose: 4.0 mg/kg/injection, schedule: Q01DX009 (ip), vehicle: saline) 105 % of control; (dose: 4.0 mg/kg/injection, schedule: Q04DX003 (ip), vehicle: saline) 97 % of control; (dose: 8.0 mg/kg/injection, schedule: Q01DX009 (ip), vehicle: saline) 94 % of control; (dose: 8.0 mg/kg/injection, schedule: Q04DX003 (ip), vehicle: saline) 100 % of control. The T/C was 97 % of control (dose: 16.0 mg/kg/injection, schedule: Q01DX009 (ip), vehicle: saline); 99 % of control (dose: 16.0 mg/kg/injection, schedule: Q04DX003 (ip), vehicle: saline); 90 % of control (dose: 32.0 mg/kg/injection, schedule: Q04DX003 (ip), vehicle: saline); 97 % of control (dose: 64.0 mg/kg/injection, schedule: Q04DX003 (ip), vehicle: saline).
Take `COc1ccc(-n2c(O)c(N=Nc3ccc(Cl)cc3)c(=O)n(-c3ccccc3)c2=S)cc1`: the T/C by setting is: (dose: 37.5 mg/kg/injection, schedule: Q01DX001 (ip), vehicle: Klucel (hydroxypropylcellulose) (HPC)) 89 % of control; (dose: 75.0 mg/kg/injection, schedule: Q01DX001 (ip), vehicle: Klucel (hydroxypropylcellulose) (HPC)) 94 % of control; (dose: 150.0 mg/kg/injection, schedule: Q01DX001 (ip), vehicle: Klucel (hydroxypropylcellulose) (HPC)) 92 % of control.
Consider `O=C(O)c1ccc2c(c1)Cc1ccccc1-2`, for which the T/C is, setting by setting: (dose: 75.0 mg/kg/injection, schedule: Q01DX001 (ip), vehicle: carboxymethylcellulose (CMC)) 96 % of control; (dose: 150.0 mg/kg/injection, schedule: Q01DX001 (ip), vehicle: carboxymethylcellulose (CMC)) 95 % of control; (dose: 300.0 mg/kg/injection, schedule: Q01DX001 (ip), vehicle: carboxymethylcellulose (CMC)) 102 % of control.
As for `O=[N+]([O-])c1ccc(Oc2ccccc2)c(Cl)c1`, the T/C reads like this: (dose: 75.0 mg/kg/injection, schedule: Q01DX009 (ip), vehicle: Klucel (hydroxypropylcellulose) (HPC)) 101 % of control; (dose: 75.0 mg/kg/injection, schedule: Q04DX003 (ip), vehicle: Klucel (hydroxypropylcellulose) (HPC)) 96 % of control; (dose: 150.0 mg/kg/injection, schedule: Q01DX009 (ip), vehicle: Klucel (hydroxypropylcellulose) (HPC)) 108 % of control; (dose: 150.0 mg/kg/injection, schedule: Q04DX003 (ip), vehicle: Klucel (hydroxypropylcellulose) (HPC)) 110 % of control; (dose: 300.0 mg/kg/injection, schedule: Q01DX009 (ip), vehicle: Klucel (hydroxypropylcellulose) (HPC)) 108 % of control; (dose: 300.0 mg/kg/injection, schedule: Q04DX003 (ip), vehicle: Klucel (hydroxypropylcellulose) (HPC)) 93 % of control.
For the compound `CCOC(=O)c1ccc(N(CCC(O)CN=[N+]=[N-])S(=O)(=O)c2ccc(C)cc2)cc1` (centres undefined), the T/C (dose: 50.0 mg/kg/injection, schedule: Q01DX001 (ip), vehicle: carboxymethylcellulose (CMC)) was 96 % of control; the T/C (dose: 100.0 mg/kg/injection, schedule: Q01DX001 (ip), vehicle: carboxymethylcellulose (CMC)) is 100 % of control; the T/C (dose: 200.0 mg/kg/injection, schedule: Q01DX001 (ip), vehicle: carboxymethylcellulose (CMC)) was 96 % of control; the T/C (dose: 400.0 mg/kg/injection, schedule: Q01DX001 (ip), vehicle: carboxymethylcellulose (CMC)) was 100 % of control.
